Test results: the NIST ThermoML archive (doi:10.1021/je400512u)
± gives the expanded uncertainty stated by the source.

Legend:
[1] = 101 kPa, Liquid; for viscosity: Concentric cylinders viscometry; for speed of sound: Pulse-echo method; for mass density: Vibrating tube method
[2] = xn = mol fraction of the nth substance listed; conditions: 101 kPa, Liquid, x2 = 0; for viscosity: Concentric cylinders viscometry; for speed of sound: Pulse-echo method; for mass density: Vibrating tube method

C1COCCO1 [1,4-dioxane]
[1]
Conditions	mass density [kg/m3]	speed of sound [m/s]	viscosity [mPa·s]
298.15 K	1027.99 ± 0.25	1345.1 ± 1.2	1.212 ± 0.042
303.15 K	1022.33 ± 0.25	1323.1 ± 1.2	1.115 ± 0.039
308.15 K	1016.66 ± 0.24	1301.3 ± 1.2	1.028 ± 0.036
313.15 K	1010.98 ± 0.24	1279.7 ± 1.2	0.952 ± 0.033
318.15 K	1005.28 ± 0.23	1258.2 ± 1.2	0.883 ± 0.031
323.15 K	999.58 ± 0.23	1237.4 ± 1.2	0.822 ± 0.029

C1COCCO1 [1,4-dioxane] + CCCCCCCO
[2]
Conditions	mass density [kg/m3]	speed of sound [m/s]	viscosity [mPa·s]
298.15 K	1027.99 ± 0.25	1345.1 ± 1.2	1.212 ± 0.042
303.15 K	1022.33 ± 0.25	1323.1 ± 1.2	1.115 ± 0.039
308.15 K	1016.66 ± 0.24	1301.3 ± 1.2	1.028 ± 0.036
313.15 K	1010.98 ± 0.24	1279.7 ± 1.2	0.952 ± 0.033
318.15 K	1005.28 ± 0.23	1258.2 ± 1.2	0.883 ± 0.031
323.15 K	999.58 ± 0.23	1237.4 ± 1.2	0.822 ± 0.029

CCCCCCCO [heptan-1-ol]
[1]
Conditions	mass density [kg/m3]	speed of sound [m/s]	viscosity [mPa·s]
298.15 K	819.73 ± 0.23	1328.3 ± 1.2	5.869 ± 0.2
303.15 K	816.183 ± 0.23	1311.3 ± 1.2	4.989 ± 0.17
308.15 K	812.61 ± 0.23	1294.5 ± 1.2	4.27 ± 0.15
313.15 K	809.011 ± 0.23	1277.7 ± 1.2	3.677 ± 0.13
318.15 K	805.383 ± 0.24	1261.1 ± 1.2	3.186 ± 0.11
323.15 K	801.731 ± 0.24	1245.1 ± 1.2	2.777 ± 0.096
